{
  "source": "paper PMC5361735",
  "about": "“Characterization and mechanisms of anti-influenza virus metabolites isolated from the Vietnamese medicinal plant Polygonum chinense” (BMC Complementary and Alternative Medicine, 2017)",
  "key": {"[1]": {"molecular_target": "NA activity of influenza virus PR8 (Influenza A virus, UniProt P03468)", "type": "biochemical"}, "[2]": {"molecular_target": "NA activity of rgPR8(H275Y) (Influenza A virus, UniProt P03468, H260Y)", "type": "biochemical"}},
  "data": [
    {"smiles": "O=C(O)/C=C/c1ccc(O)c(O)c1", "note": "[PC8, Caffeic acid]", "values": [
      {"measurement": "NA inhibitory effect against PR8", "setting": "[1]", "value": "less potent than that of OSV-C"},
      {"measurement": "NA inhibitory effect against rgPR8(H275Y)", "setting": "[2]", "value": "consistent activity"}
    ]}
  ]
}
